# Data reported in PMC6081452, “Downstream Products are Potent Inhibitors of the Heparan Sulfate 2-O-Sulfotransferase” (Scientific Reports, 2018).
# Changes are numbered by the printed parent chain.
# Tests used:
# [1] = target: T1, non-glyc-HS2ST (non-glycosylated chicken HS2ST), WT (Gallus gallus, UniProt Q76KB1); test: BLI equilibrium binding, non-glyc-HS2ST WT; details: BLI saturation binding curves, biotin-PEG4-linked hexasaccharide on sensor, n = 3, ± standard error of fit; — = response too weak to fit
# T1 construct: made in house; host or cells: E. coli Origami B (DE3)
# T1 sequence (Q76KB1 69-356 limits assumed): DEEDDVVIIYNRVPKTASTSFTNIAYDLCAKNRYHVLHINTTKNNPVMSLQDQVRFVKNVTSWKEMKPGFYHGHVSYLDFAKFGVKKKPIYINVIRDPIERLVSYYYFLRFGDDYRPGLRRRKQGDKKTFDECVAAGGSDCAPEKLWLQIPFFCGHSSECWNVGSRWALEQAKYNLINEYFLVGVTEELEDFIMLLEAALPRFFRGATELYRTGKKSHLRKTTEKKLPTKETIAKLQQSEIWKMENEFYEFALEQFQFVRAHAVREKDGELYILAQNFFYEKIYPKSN
# Description: HS-protein binding studies often utilize biologically-derived oligosaccharides of heterogeneous length and sulfation[34],[35]; however, the synthesis of oligosaccharides with defined length and specific sulfation patterns has recently become possible. We employed biolayer interferometry (BLI) to determine equilibrium surface binding constants (KD) for HS2ST with synthetic HS hexasaccharides (Fig. 1 and Supplementary Table 1). The HS compounds were attached to the BLI biosensor surface to conserve sample and to ensure a significant signal upon protein binding. The HS compounds contained a biotinylated PEG4 linker at the reducing terminus, enhancing the likelihood of a consistent presentation of the linear glycan on the sensor surface, in contrast to immobilizations via intra-chain modifications.
# Binding constants were collected for two isoforms of the enzyme; a glycosylated human variant (glyc-HS2ST) expressed in mammalian cell lines, and a highly homologous (96% identity) non-glycosylated chicken isoform expressed in E. coli (non-glyc-HS2ST). […] Thus, the enhanced ligand affinity seen in HS2ST was unexpected and may relate to the specific position of the glycosylation site (N108)[41].
# (§1) The chicken HS2ST-Maltose Binding Protein (MBP) fusion protein was expressed and purified according to previous studies. The fusion protein was transformed into E. coli Origami B (DE3) cells, cultured at 37 °C until OD600 reached 0.5, then induced with isopropyl-β-D-thiogalactopyranoside and allowed to grow overnight at 20 °C. Cells were sonicated, followed by a two-step purification procedure. Whole-cell supernatant was passed through an amylose column with Tris buffer (25 mM Tris, 500 mM NaCl, pH 7.5). An elution buffer consisted of Tris Buffer with 40 mM Maltose. The amylose column eluent was concentrated and loaded on a Superdex 200 Increase 10/300 GL with PBS buffer (10 mM sodium phosphate, 150 mM NaCl, pH 7.8) to separate trimeric protein from aggregate and independent MBP (Supplementary Fig. 4). All reported mutations formed homotrimeric complexes according to the SEC profiles, including the negative control (NC = R189A/R80E/R184E). Protein concentration was assessed via UV at 280 nm (MW of trimer ~210 KDa, extinction coefficient ~119,000 M^−1 cm^−1 according to ExPASy ProtParam webtool[56]). The trimeric protein preparation was adjusted to 5% glycerol and stored at −20 °C until use. Additional non-glyc-HS2ST constructs were created with the Q5® Mutagenesis kit (New England Biolabs Inc.; cat. # E0554S) and sequenced at the Georgia Genomics Facility at the University of Georgia.
# The Octet® RED96 system (FortéBio Inc.) was employed to detect the affinity of the enzymes for specific HS targets. Due to the small size of the glycan and the deep HS2ST binding cavity, the glycan and protein were treated as ligand and analyte, respectively. Varyingly sulfated HS fragments conjugated to biotin linkers were purchased from Glycan Therapeutics Inc. with purities greater than 93% according to HPLC (sequences located in Supplementary Table 1). The glycans were immobilized onto streptavidin (SA) labeled biosensors (FortéBio; cat. #18–5019) at 0.5 µg/mL. Experiments were performed at 25 °C in PBS Buffer (10 mM sodium phosphate, 150 mM NaCl, pH 7.8) with a final concentration of 1X Pall Kinetics buffer (FortéBio Inc; cat. #18–1092). Fresh biosensors and protein samples were used for each measurement (no regeneration step). […]
# non-glyc-HS2ST H142A = target: T2, non-glyc-HS2ST H142A (Gallus gallus, UniProt Q76KB1, H142A); test: BLI equilibrium binding, non-glyc-HS2ST H142A; set-up: species or system chicken; details: BLI saturation binding curves, n = 3, ± standard error of fit
# T2 construct: made in house; host or cells: E. coli Origami B (DE3)
# T2 sequence (Q76KB1 69-356 H142A limits assumed): T1 sequence (Q76KB1 69-356 limits assumed) with H74A
# Description: To assess whether the inhibitory compounds interact with the active site, point mutations were introduced in non-glyc-HS2ST (Fig. 4a). Four mutants of the catalytic residue (H142A/E/R/K) were created, along with a mutation of the residue that facilitates 2-O-sulfation of IdoA residues (R189A)[27]. Additionally, a negative control (NC) was generated containing multiple mutations of positively charged residues (R189A, R80E, and R184E) that reduced the net charge of each protein monomer by 5. The extent that the mutations affected affinity provided an indication that the ligand had been bound in the active site (Table 1 and Supplementary Fig. 1). While R189A markedly diminished the affinity for all compounds, the NC mutations reduced affinity to immeasurable levels. Removal of the catalytic side chain (H142A) enhanced the affinity of each compound, compared to the WT, by approximately 2–3-fold. Addition of a positive charge at this location (H142K/R) further enhanced the affinity for each compound, so much so that a KD value could be measured even for 2. The H142E mutation diminished the affinity of 5 by half compared to WT, but its effects were less significant for binding to 3 or 4.
# as §1
# The Octet® RED96 system (FortéBio Inc.) was employed to detect the affinity of the enzymes for specific HS targets. […]
Kd [1] [nM],Kd (non-glyc-HS2ST H142A) [nM],Substance
13 ± 3,10 ± 2,GlcNS6S-GlcA-GlcNS3S6S-IdoA2S-GlcNS6S-GlcA~ [Compound 4]
72 ± 8,25 ± 2,GlcNS6S-GlcA-GlcNS6S-GlcA-GlcNS6S-GlcA~ [Compound 5]
42 ± 5,20 ± 3,GlcNS6S-GlcA-GlcNS6S-IdoA2S-GlcNS6S-GlcA~ [Compound 3]
> 500,460 ± 91,GlcNS-GlcA-GlcNS-IdoA2S-GlcNS-GlcA~ [Compound 2]
